Article PMC6058520 (Drug Delivery, 2018)
Several values for one entry are separate records, joined by “and”; a condition that tells them apart may be missing. Equal entries are not always repeated. Square brackets hold non-standard residues; d marks the D form. Peptide text beside a SMILES is read from it.

What was measured:
[1] = Pharmacokinetics of insulin/TCTP-PTD analog mixtures in normal rats (plasma insulin, ELISA); format: in vivo, rat; conditions: for BA (relative bioavailability compared to s.c.) / AUC / Cmax / Tmax: mean ± SEM (n = 5–7); for Cmax / Tmax: ELISA
Experimental: Rats were fasted for 16 h with access to water, anesthetized by intraperitoneal injection of sodium pentobarbital (60 mg/kg), and placed in the supine position. […] Blood samples (100 µL) were collected from the rat tail 5, 10, 20, 30, 60, 90, 120 and 180 min after dosing and centrifuged at 5000 × g for 25 min to obtain plasma. […] Relative BA was calculated using the following formula: BA(%)=(AUCnasal×Doses.c.)/(AUCs.c×Dosenasal)×100%

[2] = ref Bae & Lee, 2013; cited from earlier work
Description: We previously reported that the human translationally controlled tumor protein (TCTP) contains a PTD at its N-terminus (TCTP-PTD) with the amino acid sequence […] al., [2011a]). To improve the penetration of peptides through the cell membrane, we designed variant peptides modified from TCTP-PTD. […] Therefore, the D-TCTP-PTD analogs could negatively affect insulin delivery through the nasal mucosa.

[3] = test system: rats with alloxan-induced diabetes; assay: Pharmacodynamics (blood glucose) of insulin/TCTP-PTD analog mixtures in diabetic rats; format: in vivo, rat; conditions: area above blood glucose curve, mean ± SEM (n = 6–8)
Experimental: After 5 days, rats with fasting blood glucose levels in the range of 230-300 mg/dL were selected for the pharmacodynamic studies. […] Then, they were anesthetized by intraperitoneal injections of sodium pentobarbital (60 mg/kg). […] Blood samples were collected from the tip of the rat tail, and blood glucose levels were directly measured using an Accu-Chek glucose meter (Roche Diagnostics, Seoul, Korea). […] The area above the blood glucose curve (AAC) was calculated according to the trapezoid rule. The F% was calculated using the following equation: F%=([…])×100%

[4] = test system: BEAS-2B human bronchial epithelial cells; assay: Cellular uptake of FITC-labeled peptides, flow cytometry; format: cell-based; conditions: FITC-labeled peptides 5 µM in BEGM, BEAS-2B cells, 30 min, 37 °C, p < .05
Experimental: Cellular uptake assays were carried out to assess the membrane permeability of the new peptides, as previously described (Bae et al., [2016]). Briefly, BEAS-2B human bronchial epithelial cells (American Type Culture Collection [ATCC], Manassas, VA) were maintained in bronchial epithelial growth medium (BEGM; Lonza, Walkersville, MD) and 2 × 10^5 cells/well were seeded in 12-well plates. After 24 h, the cells were washed twice with 1 mL phosphate-buffered saline (PBS) and incubated with FITC-labeled peptides (5 µM) in BEGM for 30 min at 37 °C. The cells were then washed three times with ice-cold PBS to remove cell surface-bound peptides. After trypsinization, the cells were collected by centrifugation (1000 × g for 5 min), washed and finally resuspended in 1 mL ice-cold PBS. The internalized FITC was measured using fluorescence-activated cell sorting on a FACSCalibur flow cytometer (Becton Dickinson, San Jose, CA, USA) at emission and excitation wavelengths of 510 and 530 nm, respectively. Assays were performed in triplicate and repeated at least three times. Flow cytometric analyses were accomplished using WinMDI v.2.8 software.

[5] = D-form compared with L-TCTP-PTD 13; ref Bae et al., 2016; cited from earlier work
Description: Therefore, the D-TCTP-PTD analogs could negatively affect insulin delivery through the nasal mucosa.

[6] = insulin 1 IU/kg intranasal plus 0.1 mM PTD
[7] = insulin 1 IU/kg intranasal plus 0.25 mM PTD
[8] = plasma insulin AUC0-180 min, insulin 1 IU/kg intranasal plus 0.1 mM PTD
[9] = plasma insulin AUC0-180 min, insulin 1 IU/kg intranasal plus 0.25 mM PTD
[10] = plasma insulin, insulin 1 IU/kg intranasal plus 0.1 mM PTD
[11] = plasma insulin, insulin 1 IU/kg intranasal plus 0.25 mM PTD

Row | Molecule | BA (relative bioavailability compared to s.c.) [1, 6] [%] | BA (relative bioavailability compared to s.c.) [1, 7] | AUC [1, 8] [μU/mL·min] | AUC [1, 9] [μU/mL·min] | Cmax [1, 10] [μU/mL] | Tmax [1, 10] [min] | Cmax [1, 11] [μU/mL] | Tmax [1, 11] [min] | nasal absorption of insulin compared to insulin alone (in words) [2] | AUC ([1]; AUC0-180 min, insulin s.c., 0.25 IU/kg) [μU/mL·min] | AUC ([1]; AUC0-180 min, trapezoid rule, insulin alone, intranasal, 5 IU/kg) [μU/mL·min] | plasma insulin after intranasal insulin alone (in words) ([1]; insulin 1 IU/kg intranasal, alone) | Cmax ([1]; insulin s.c., 0.25 IU/kg) [μU/mL] | AAC0–240 min ([3]; insulin alone, intranasal, 2 IU/kg) [% glucose/min] | AAC0–240 min ([3]; insulin s.c., 1 IU/kg) [% glucose/min] | cellular uptake capacity compared with L-TCTP-PTD 13 (in words) [4] | antigen (ovalbumin) carrier potency through nasal mucosa (in words) [5]
1 | CC[C@H](C)[C@H](NC(=O)[C@H](CC(C)C)NC(=O)[C@H](C)NC(=O)[C@H](CCCNC(=N)N)NC(=O)[C@H](Cc1ccccc1)NC(=O)[C@@H](NC(=O)[C@@H](NC(=O)[C@H](CCSC)NC(C)=O)[C@@H](C)CC)[C@@H](C)CC)C(=O)N[C@@H](CO)C(=O)N[C@@H](Cc1c[nH]cn1)C(=O)N[C@@H](CCCCN)C(=O)N[C@@H](CCCCN)C(N)=O [L-TCTP-PTD 13] (Ac-MIIFRALISHKK-NH2) | 9.0 ± 1.4 | 22.1% and 22.1 ± 2.5% | 847.1 ± 132.9 | 2081.7 ± 238.6 | 26.4 ± 7.8 | 12.0 ± 2.0 | 53.4 ± 6.7 | 10.0 ± 0.0 | enhanced nasal absorption |  |  |  |  |  |  |  | 
2 | Insulin: Human recombinant insulin (27.5 IU/mg), Sigma-Aldrich |  |  |  |  |  |  |  |  |  | 2356.4 ± 106.2 | 180.5 ± 37.6 | scarcely detectable | 40.9 ± 0.9 | 721.0 ± 478.2 | 11354.3 ± 507.8 |  | 
3 | CC[C@H](C)[C@H](NC(=O)[C@H](CC(C)C)NC(=O)[C@H](CC(C)C)NC(=O)[C@H](CCCNC(=N)N)NC(=O)[C@H](Cc1ccccc1)NC(=O)[C@@H](NC(=O)[C@@H](NC(=O)[C@H](CCSC)NC(C)=O)[C@@H](C)CC)[C@@H](C)CC)C(=O)N[C@@H](CO)C(=O)N[C@@H](Cc1c[nH]cn1)C(=O)N[C@@H](CCCCN)C(=O)N[C@@H](CCCCN)C(N)=O [L-TCTP-PTD 13M1] (Ac-MIIFRLLISHKK-NH2) | 20.9 ± 1.4 | 10.1 ± 2.4% | 1966.3 ± 130.5 | 951.7 ± 225.9 | 47.1 ± 3.1 | 10.0 ± 0.0 | 15.0 ± 3.3 | 13.3 ± 2.1 |  |  |  |  |  |  |  | lower | 
4 | CC[C@@H](C)[C@@H](NC(=O)[C@@H](CC(C)C)NC(=O)[C@@H](C)NC(=O)[C@@H](CCCNC(=N)N)NC(=O)[C@@H](Cc1ccccc1)NC(=O)[C@H](NC(=O)[C@H](NC(=O)[C@@H](CCSC)NC(C)=O)[C@H](C)CC)[C@H](C)CC)C(=O)N[C@H](CO)C(=O)N[C@H](Cc1c[nH]cn1)C(=O)N[C@H](CCCCN)C(=O)N[C@H](CCCCN)C(N)=O [D-TCTP-PTD 13] (Ac-[dM][dI][dI][dF][dR][dA][dL][dI][dS][dH][dK][dK]-NH2) |  | 6.8% and 6.8 ± 2.0% |  | 645.5 ± 191.2 |  |  | 13.8 ± 4.2 | 14.0 ± 2.4 |  |  |  |  |  |  |  |  | more potent antigen carrier
